Test results published in patent publication US8445677B2, “Substituted pyrimidyl guanidine derivatives having anticancer activity” (University of Southern California, priority 2008, dated 2013).

Assays:
SkBr-3 = test: MTT cytotoxicity assay (Example 2); type: cell-based, human; conditions: Homo sapiens, SK-BR-3, 72 h
Excerpt: (§1) Human breast cancer cell lines MDA-MB-435 and SkBr-3 were purchased from the American Type Culture Collection (Manassas, Va.). The HCT116 P53+/+ and HCT116 P53−/− cell lines were kindly provided by Dr. Bert Vogelstein (Johns Hopkins Medical Institutions, Baltimore, Md.). The HEY human ovarian carcinoma cell line was kindly provided by Dr. Louis Dubeau (University of Southern California Norris Cancer Center). Cells were maintained as monolayer cultures in media supplemented with 10% fetal bovine serum (Gemini-Bioproducts, Woodland, Calif.) and 2 mmo/lL-glutamine at 37° C. in a humidified atmosphere of 5% C02. To remove the adherent cells from the flask for passaging and counting, cells were washed with PBS without calcium or magnesium, incubated with a small volume of 0.25% trypsin-EDTA solution (Sigma-Aldrich, St. Louis, Mo.) for 5-10 min, and washed with culture medium and centrifuged. All experiments were performed using cells in exponential growth stage. Cells were routinely checked for mycoplasma contamination using a PCR-based assay (Stratagene, Cambridge, UK).
(§2) Stock solutions (10 mM) of all compounds were prepared in DMSO and stored at −20° C. Further dilutions were made fresh in cell-culture media just prior to cell treatment.
(§3) Cytotoxicity was assessed by a 3-(4,5-dimethylthiazol-2-yl)-2,5-diphenyltetrazolium bromide (MTT) assay as previously described.^23 Cells were seeded in 96-well plates and allowed to attach overnight. Cells were subsequently treated with continuous exposure to the corresponding drug for 72 h. An MTT solution (at a final concentration of 0.5 mg/ml) was added to each well, and cells were incubated for 4 h at 37° C. After removal of the medium, DMSO was added and the absorbance was read at 570 nm. All assays were performed in triplicate. The IC50 was determined for each drug from a plot of log (drug concentration) versus percentage of cells killed.

HEY = test: MTT cytotoxicity assay (Example 2); type: cell-based, human; conditions: Homo sapiens, 72 h
Excerpt: as §1, §2, §3

MDA-MB-435 = test: MTT cytotoxicity assay (Example 2); type: cell-based; conditions: Homo sapiens, MDA-MB-435, 72 h
Excerpt: as §1, §2, §3

HCT116 p53−/− [1] = test: MTT cytotoxicity assay (Example 2); type: cell-based; conditions: Homo sapiens, HCT-116, 72 h
Excerpt: as §1, §2, §3

HCT116 p53+/+ [2] = test: MTT cytotoxicity assay (Example 2); type: cell-based; conditions: Homo sapiens, HCT-116, 72 h, MTT, 72 h; read-out: IC50 Hct116 p53+/+
Excerpt: as §1, §2, §3

HEY cells = test: Colony formation assay; type: cell-based, human; conditions: several doses
Description: (§4) Colony formation assays were also performed to confirm the activity of these compounds as described.^1,25 Briefly, cells were plated in 6-well plates at a density of 500 cells/well and allowed to attach. The next day, serial dilutions of the corresponding compounds were added and allowed to incubate for 24 h. After exposure, cells were washed in PBS and cultured in drug-free media until colonies were formed (8-10 days). Cells were subsequently washed, fixed with a 1% glutaraldehyde solution for 30 min, and stained with a solution of crystal violet (2%) for 30 min. After staining, cells were thoroughly washed with water. Colonies were imaged on the ChemiDoc Imaging System (Bio-Rad) and counted using the Quantity One quantitation software package (Bio-Rad). The data reported represent means of at least three independent experiments.

HCT p53+/+ cells = test: Colony formation assay; type: cell-based; conditions: several doses
Description: as §4

NIH3T3 = test: MTT cytotoxicity assay (Example 1); type: cell-based, mouse
Excerpt: (§5) Human breast cancer cells MDA-MB-435 were purchased from the American Type Culture Collection (Manassas, Va.). The HCT116 p53+/+ and HCT116 p53−/− cells were kindly provided by Dr. Bert Vogelstein (Johns Hopkins Medical Institutions, Baltimore, Md.). The human ovarian carcinoma cell line (HEY) which is naturally resistant to cisplatin, was kindly provided by Dr. Louis Dubeau, University of Southern California (USC) Norris Cancer Center, and NIH3T3 normal mouse fibroblast cells were kindly provided by Dr. Michael Press from USC. HEY and NIH3T3 cells were maintained as monolayer cultures in RPMI, HCT 116 cells in McCoy1s5A media and MDA-MB 435 in DMEM. Media were purchased from (Mediatech, Virginia) and supplemented with 10% fetal bovine serum (Gemini-Bioproducts, Woodland, Calif.), 2 mM L-glutamine and 5% Penicillin/streptomycin from Bio whittaker were purchased from VWR. Cells were incubated at 37° C. in a humidified atmosphere of 5% CO2. To remove the adherent cells from the flask for passaging and counting, cells were washed with PBS without calcium or magnesium, incubated with a small volume of 0.25% trypsin-EDTA solution (Sigma-Aldrich, St. Louis, Mo.) for 5-10 min, and washed with culture medium and centrifuged. All experiments were performed using cells at exponential growth stage. Cells were routinely checked for mycoplasma contamination using a PCR-based assay (Stratagene, Tex., USA).
(§6) Stock solutions (10 mM) of all compounds were prepared in DMSO and stored at −20° C. Further dilutions were made fresh in PBS or cell-culture media right before cell treatment.
(§7) Cytotoxicity was assessed by a 3-(4,s-dimethylthiazol-2-yl)-2,5-diphenyltetrazolium bromide (MTT) assay as previously described.^24 Briefly, cells were seeded in 96-well microtiter plates and allowed to attach overnight. Cells were subsequently treated with continuous exposure to the corresponding drug for 72 h. A MTT solution (at a final concentration of 0.5 mglml) was added to each well, and cells were incubated for 4 h at 37° C. After removal of the medium, DMSO was added and the absorbance was read at 570 nm. All assays were done in triplicate. The IC50 was then determined for each drug from a plot of log (drug concentration) versus percentage of cells killed.

HCT116 p53−/− [3] = test: MTT cytotoxicity assay (Example 1); type: cell-based; conditions: MTT, 72 h
Excerpt: as §5, §6, §7

HCT116 p53+/+ [4] = test: MTT cytotoxicity assay (Example 1); type: cell-based; conditions: MTT, 72 h
Excerpt: as §5, §6, §7

CN1CCN(Cc2ccc(O)c3ncccc23)CC1 [14-SMD58-7]
IC50 (SkBr-3): 3200 ± 100 nM | IC50 (HEY): 400 nM | IC50 (MDA-MB-435): 3900 ± 100 nM | IC50 (HCT116 p53−/− [1]): 1700 ± 200 nM | IC50 (HCT116 p53+/+ [2]): 700 ± 400 nM

Oc1ccc(CN2CCN(Cc3ccccc3)CC2)c2cccnc12 [15-SMD58-8]
IC50 (SkBr-3): 1700 ± 700 nM | IC50 (HEY): 1800 ± 700 nM | IC50 (MDA-MB-435): 5400 ± 700 nM | IC50 (HCT116 p53−/− [1]): 2500 ± 1600 nM | IC50 (HCT116 p53+/+ [2]): 1700 ± 700 nM

CCOc1ccc(NCc2ccc(O)c3ncccc23)cc1 [16-SMD58-11]
IC50 (SkBr-3): 3000 ± 1300 nM | IC50 (HEY): 1700 ± 100 nM | IC50 (MDA-MB-435): 4900 ± 1100 nM | IC50 (HCT116 p53−/− [1]): 1200 ± 200 nM | IC50 (HCT116 p53+/+ [2]): 2300 ± 100 nM

Cc1cccc(NCc2ccc(O)c3ncccc23)c1 [17-SMD58-12]
IC50 (SkBr-3): 4000 ± 500 nM | IC50 (HEY): 1500 ± 800 nM | IC50 (MDA-MB-435): 6600 nM | IC50 (HCT116 p53−/− [1]): 1900 ± 400 nM | IC50 (HCT116 p53+/+ [2]): 1800 ± 400 nM

Oc1ccc(CNc2ccc(C(F)(F)F)cc2)c2cccnc12 [18-SMD58-13]
IC50 (SkBr-3): 2800 ± 500 nM | IC50 (HEY): 1200 ± 100 nM | IC50 (MDA-MB-435): 5200 ± 400 nM | IC50 (HCT116 p53−/− [1]): 2000 ± 100 nM | IC50 (HCT116 p53+/+ [2]): 1600 ± 100 nM

COc1cccc(NCc2ccc(O)c3ncccc23)c1 [19-SMD58-14]
IC50 (SkBr-3): 2900 ± 300 nM | IC50 (HEY): 1900 nM | IC50 (MDA-MB-435): 5000 ± 900 nM | IC50 (HCT116 p53−/− [1]): 2100 ± 100 nM | IC50 (HCT116 p53+/+ [2]): 1300 ± 900 nM

Oc1ccc(CN2CCCCC2)c2cccnc12 [20-SMD58-18]
IC50 (SkBr-3): 8600 ± 1400 nM | IC50 (HEY): 5000 ± 1600 nM | IC50 (MDA-MB-435): 8900 nM | IC50 (HCT116 p53−/− [1]): 6500 ± 800 nM | IC50 (HCT116 p53+/+ [2]): 6800 ± 1300 nM

Oc1ccc(CN2CCN(c3ccccn3)CC2)c2cccnc12 [21-SMD58-19]
IC50 (SkBr-3): 3000 ± 1000 nM | IC50 (HEY): 2800 ± 600 nM | IC50 (MDA-MB-435): 2700 nM | IC50 (HCT116 p53−/− [1]): 2200 ± 100 nM | IC50 (HCT116 p53+/+ [2]): 2600 ± 700 nM

CCN1CCN(Cc2ccc(O)c3ncccc23)CC1 [22-SMD58-20]
IC50 (SkBr-3): 4100 ± 100 nM | IC50 (HEY): 1400 ± 200 nM | IC50 (MDA-MB-435): 7200 ± 400 nM | IC50 (HCT116 p53−/− [1]): 2100 ± 1200 nM | IC50 (HCT116 p53+/+ [2]): 2100 nM

Cc1cccnc1NCc1ccc(O)c2ncccc12 [23-SMD58-22]
IC50 (SkBr-3): 3300 ± 700 nM | IC50 (HEY): 2800 nM | IC50 (MDA-MB-435): 3100 ± 600 nM | IC50 (HCT116 p53−/− [1]): 1500 ± 100 nM | IC50 (HCT116 p53+/+ [2]): 1400 ± 400 nM

Cc1cccc(NCc2ccc(O)c3ncccc23)n1 [24-SMD58-23]
IC50 (SkBr-3): 3600 ± 500 nM | IC50 (HEY): 2300 ± 300 nM | IC50 (MDA-MB-435): 2300 nM | IC50 (HCT116 p53−/− [1]): 1600 ± 300 nM | IC50 (HCT116 p53+/+ [2]): 2800 ± 100 nM

CCC(=O)NC(c1ccc(OC)cc1)c1cc([N+](=O)[O-])c2cccnc2c1O (stereo not shown) [25-SMD58-26]
IC50 (SkBr-3): > 10000 nM | IC50 (HEY): 3200 nM | IC50 (MDA-MB-435): 7500 nM | IC50 (HCT116 p53−/− [1]): 7100 ± 1100 nM | IC50 (HCT116 p53+/+ [2]): 6800 ± 200 nM

CCC(=O)NC(c1cccs1)c1cc([N+](=O)[O-])c2cccnc2c1O (stereo not shown) [26-SMD58-27]
IC50 (SkBr-3): 4600 ± 800 nM | IC50 (HEY): 3200 ± 800 nM | IC50 (MDA-MB-435): 5600 nM | IC50 (HCT116 p53−/− [1]): 4200 ± 1200 nM | IC50 (HCT116 p53+/+ [2]): 5000 ± 400 nM

Oc1ccc(Br)cc1/C=N/Nc1nc2nonc2nc1Nc1ccc(F)cc1 [Compound 2]
toxic effect in colony formation assay (HEY cells): significant toxic effect | toxic effect in colony formation assay (HCT p53+/+ cells): significant toxic effect | IC50 (NIH3T3; 72 h): 6000 ± 1400 nM | IC50 (NIH3T3; Mus musculus, NIH3T3, 72 h): 8000 nM | IC50 (HCT116 p53−/− [3]; Homo sapiens, HCT-116, 72 h): < 3000 nM | IC50 (HCT116 p53−/− [3]): 1800 ± 700 nM | IC50 (HCT116 p53+/+ [4]; Homo sapiens, HCT-116, 72 h): < 3000 nM | IC50 (HCT116 p53+/+ [4]): 1500 ± 1000 nM
